{
  "source": "ChEMBL document CHEMBL1201862",
  "about": "“PubChem BioAssay data set” (2004)",
  "test_in_all_cases": "NCI-60 cell line screen, 48 h",
  "key": {"[1]": {"tested_on": "MDA-MB-231"}, "[2]": {"tested_on": "RPMI-8226"}, "[3]": {"tested_on": "SK-OV-3"}, "[4]": {"tested_on": "A549"}, "[5]": {"tested_on": "HT-29"}, "[6]": {"tested_on": "LOX IMVI"}, "[7]": {"tested_on": "SNB-75"}, "[8]": {"tested_on": "A498"}, "[9]": {"tested_on": "KM12"}, "[10]": {"tested_on": "T47D"}, "[11]": {"tested_on": "OVCAR-8"}, "[12]": {"tested_on": "MDA-N"}, "[13]": {"tested_on": "MOLT-4"}, "[14]": {"tested_on": "RXF 393"}, "[15]": {"tested_on": "IGROV-1"}},
  "note": "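The compound was tested at five concentrations on cells cultured in 96-well plates, with a 48-hour exposure period. Here, GI50 denotes the concentration required for 50% inhibition of growth.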 Calls of active or inactive are those of the source. Rule as the data show it: active = GI50 up to about 1.1 µM and inactive = higher.",
  "data": [
    {"smiles": "O=[N+]([O-])c1ccc(C(c2c[nH]c3ccccc23)c2c[nH]c3ccccc23)cc1", "values": [
      {"measurement": "GI50", "setting": "[1]", "result": "12.4 µM (inactive)"},
      {"measurement": "GI50", "setting": "[2]", "result": "1.45 µM (inactive)"},
      {"measurement": "GI50", "setting": "[3]", "result": "16.8 µM (inactive)"},
      {"measurement": "GI50", "setting": "[4]", "result": "6.82 µM (inactive)"},
      {"measurement": "GI50", "setting": "[5]", "result": "11.5 µM (inactive)"},
      {"measurement": "GI50", "setting": "[6]", "result": "11.1 µM (inactive)"},
      {"measurement": "GI50", "setting": "[7]", "result": "4.8 µM (inactive)"},
      {"measurement": "GI50", "setting": "[8]", "result": "16.1 µM (inactive)"},
      {"measurement": "GI50", "setting": "[9]", "result": "6.24 µM (inactive)"},
      {"measurement": "GI50", "setting": "[10]", "result": "0.653 µM (active)"},
      {"measurement": "GI50", "setting": "[11]", "result": "14.7 µM (inactive)"},
      {"measurement": "GI50", "setting": "[12]", "result": "11.6 µM (inactive)"},
      {"measurement": "GI50", "setting": "[13]", "result": "9.66 µM (inactive)"}
    ]},
    {"smiles": "Cc1ccc(S(=O)(=O)NNC(=O)Nc2ccc([N+](=O)[O-])cc2)cc1", "values": [
      {"measurement": "GI50", "setting": "[1]", "result": "22.1 µM (inactive)"},
      {"measurement": "GI50", "setting": "[2]", "result": "20 µM (inactive)"},
      {"measurement": "GI50", "setting": "[4]", "result": "35.6 µM (inactive)"},
      {"measurement": "GI50", "setting": "[5]", "result": "43.5 µM (inactive)"},
      {"measurement": "GI50", "setting": "[6]", "result": "52.4 µM (inactive)"},
      {"measurement": "GI50", "setting": "[14]", "result": "> 100 µM (inactive)"},
      {"measurement": "GI50", "setting": "[7]", "result": "72.9 µM (inactive)"},
      {"measurement": "GI50", "setting": "[8]", "result": "37.8 µM (inactive)"},
      {"measurement": "GI50", "setting": "[15]", "result": "35.2 µM (inactive)"},
      {"measurement": "GI50", "setting": "[9]", "result": "23.8 µM (inactive)"},
      {"measurement": "GI50", "setting": "[10]", "result": "2.65 µM (inactive)"},
      {"measurement": "GI50", "setting": "[11]", "result": "17.4 µM (inactive)"},
      {"measurement": "GI50", "setting": "[12]", "result": "> 100 µM (inactive)"},
      {"measurement": "GI50", "setting": "[13]", "result": "46.3 µM (inactive)"}
    ]},
    {"smiles": "CCOP(=O)(OCC)/C(C#N)=C/c1ccc(-c2cc(C(F)(F)F)cc(C(F)(F)F)c2)o1", "values": [
      {"measurement": "GI50", "setting": "[1]", "result": "13.7 µM (inactive)"},
      {"measurement": "GI50", "setting": "[2]", "result": "3.59 µM (inactive)"},
      {"measurement": "GI50", "setting": "[4]", "result": "14.4 µM (inactive)"},
      {"measurement": "GI50", "setting": "[5]", "result": "6.55 µM (inactive)"},
      {"measurement": "GI50", "setting": "[6]", "result": "3.34 µM (inactive)"},
      {"measurement": "GI50", "setting": "[7]", "result": "10.5 µM (inactive)"},
      {"measurement": "GI50", "setting": "[8]", "result": "12.4 µM (inactive)"},
      {"measurement": "GI50", "setting": "[10]", "result": "11.9 µM (inactive)"},
      {"measurement": "GI50", "setting": "[11]", "result": "16.2 µM (inactive)"},
      {"measurement": "GI50", "setting": "[12]", "result": "13.3 µM (inactive)"},
      {"measurement": "GI50", "setting": "[13]", "result": "3.71 µM (inactive)"}
    ]},
    {"smiles": "Cc1cc2c(cc1O)CC[C@@H]1[C@@H]2CC[C@]2(C)[C@@H](O)CC[C@@H]12", "values": [
      {"measurement": "GI50", "setting": "[1]", "result": "9.38 µM (inactive)"},
      {"measurement": "GI50", "setting": "[2]", "result": "4.74 µM (inactive)"},
      {"measurement": "GI50", "setting": "[3]", "result": "11.5 µM (inactive)"},
      {"measurement": "GI50", "setting": "[4]", "result": "8.02 µM (inactive)"},
      {"measurement": "GI50", "setting": "[5]", "result": "17.1 µM (inactive)"},
      {"measurement": "GI50", "setting": "[6]", "result": "11 µM (inactive)"},
      {"measurement": "GI50", "setting": "[7]", "result": "5.43 µM (inactive)"},
      {"measurement": "GI50", "setting": "[8]", "result": "18.7 µM (inactive)"},
      {"measurement": "GI50", "setting": "[15]", "result": "15.8 µM (inactive)"},
      {"measurement": "GI50", "setting": "[9]", "result": "4.52 µM (inactive)"},
      {"measurement": "GI50", "setting": "[10]", "result": "19.3 µM (inactive)"},
      {"measurement": "GI50", "setting": "[11]", "result": "19.1 µM (inactive)"},
      {"measurement": "GI50", "setting": "[12]", "result": "1.9 µM (inactive)"},
      {"measurement": "GI50", "setting": "[13]", "result": "3.68 µM (inactive)"}
    ]},
    {"smiles": "O=C(Cn1ccnc1[N+](=O)[O-])NCCO", "note": "[ETANIDAZOLE]", "values": [
      {"measurement": "GI50", "setting": "[1]", "result": "> 100 µM (inactive)"},
      {"measurement": "GI50", "setting": "[2]", "result": "> 100 µM (inactive)"},
      {"measurement": "GI50", "setting": "[3]", "result": "> 100 µM (inactive)"},
      {"measurement": "GI50", "setting": "[4]", "result": "> 100 µM (inactive)"},
      {"measurement": "GI50", "setting": "[5]", "result": "> 100 µM (inactive)"},
      {"measurement": "GI50", "setting": "[6]", "result": "> 100 µM (inactive)"},
      {"measurement": "GI50", "setting": "[14]", "result": "> 100 µM (inactive)"},
      {"measurement": "GI50", "setting": "[7]", "result": "> 100 µM (inactive)"},
      {"measurement": "GI50", "setting": "[8]", "result": "> 100 µM (inactive)"},
      {"measurement": "GI50", "setting": "[15]", "result": "> 100 µM (inactive)"},
      {"measurement": "GI50", "setting": "[9]", "result": "> 100 µM (inactive)"},
      {"measurement": "GI50", "setting": "[10]", "result": "> 100 µM (inactive)"},
      {"measurement": "GI50", "setting": "[11]", "result": "> 100 µM (inactive)"}
    ]},
    {"smiles": "Clc1ccc(COC(Cn2ccnc2)c2ccc(Cl)cc2Cl)c(Cl)c1", "note": "(stereo not given) [MICONAZOLE]", "values": [
      {"measurement": "GI50", "setting": "[1]", "result": "12.6 µM (inactive)"},
      {"measurement": "GI50", "setting": "[2]", "result": "8.65 µM (inactive)"},
      {"measurement": "GI50", "setting": "[3]", "result": "14.3 µM (inactive)"},
      {"measurement": "GI50", "setting": "[4]", "result": "9.64 µM (inactive)"},
      {"measurement": "GI50", "setting": "[6]", "result": "12.7 µM (inactive)"},
      {"measurement": "GI50", "setting": "[9]", "result": "11.8 µM (inactive)"},
      {"measurement": "GI50", "setting": "[10]", "result": "7.89 µM (inactive)"},
      {"measurement": "GI50", "setting": "[11]", "result": "13.9 µM (inactive)"},
      {"measurement": "GI50", "setting": "[12]", "result": "4.8 µM (inactive)"},
      {"measurement": "GI50", "setting": "[13]", "result": "4.33 µM (inactive)"}
    ]}
  ]
}
